Article PMC6541611, “The UbiX flavin prenyltransferase reaction mechanism resembles class I terpene cyclase chemistry” (Nature Communications, 2019)
Read-outs that look alike come from different tables or passages of the source.

Legend:
AnUbiX [1] = biological target: T1, AnUbiX (Aspergillus niger, UniProt A3F715); test: crystal structure; type: binding
T1 construct: gene PAD1
T1 sequence (A3F715 1-227): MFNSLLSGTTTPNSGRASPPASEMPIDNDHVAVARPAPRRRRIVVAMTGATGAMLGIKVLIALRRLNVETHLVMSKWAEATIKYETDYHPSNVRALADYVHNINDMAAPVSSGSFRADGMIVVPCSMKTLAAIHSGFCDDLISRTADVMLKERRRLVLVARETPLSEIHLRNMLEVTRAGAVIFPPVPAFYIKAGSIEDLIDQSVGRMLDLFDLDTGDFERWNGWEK

EcUbiX = biological target: T2, EcUbiX (Escherichia coli, UniProt P0AG03); test: UV-Vis single turnover; type: biochemical
T2 construct: gene ubiX
T2 sequence (P0AG03 1-189): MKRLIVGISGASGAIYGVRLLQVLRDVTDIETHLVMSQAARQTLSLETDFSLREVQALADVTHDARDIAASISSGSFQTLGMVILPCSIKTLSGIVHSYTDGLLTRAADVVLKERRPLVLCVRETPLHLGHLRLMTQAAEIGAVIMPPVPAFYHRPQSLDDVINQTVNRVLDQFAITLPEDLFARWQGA

AnUbiX [2] = biological target: T1, AnUbiX; test: UV-Vis single turnover; type: biochemical

`CC(C)=CCOP(=O)(O)OP(=O)(O)O` [DMAPP] was tested, and the crystal structure (AnUbiX [1]; co-purified, no exogenous DMAPP added, with oxidised FMN, pH 6.2) was “electron density directly located above the oxidised FMN that corresponds to a bound DMAPP” and the UV-Vis single turnover (EcUbiX; 2 mM DMAPP, FMNH2, pH 8, prFMN formed) was “is only able to catalyse DMAPP-specific prFMNH2 formation under the conditions tested”.
In the case of `CC(C)=CCOP(=O)(O)O` [DMAP], the UV-Vis single turnover (AnUbiX [2]) is reported as “Crucially, DMAP incubation does affect the resulting FMN spectrum” and the UV-Vis single turnover (EcUbiX) is reported as “AnUbiX and EcUbiX appear to catalyse the prenyltransferase step with DMAP”.
With `Cc1cc2nc3c(=O)[nH]c(=O)nc-3n(C[C@H](O)[C@H](O)[C@H](O)COP(=O)(O)O)c2cc1C` [FMN] the crystal structure (AnUbiX [1]) was “The crystal structure of AnUbiX in complex with FMN and DMAPP”.
